Data as given in patent US20230271949A1, “GLP-1R MODULATING COMPOUNDS” (ASCLETIS BIOSCIENCE CO., LTD., priority 2022, published 2023).
pEC50: −log10 of the molar value.

Each compound was assayed against GLP-1R (Homo sapiens, UniProt P43220) (assay: GLP-1R agonist cAMP stimulation assay (HTRF cAMP)). Details: HEK293 cell line expressing GLP-1 target; HTRF cAMP agonist mode, 30 min at RT.
Type: cell-based
How it was run: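 Read-out was HTRF (665/615 ratio), interpolated onto a cAMP standard curve and normalised to DMSO (0%) and maximal GLP-1(7-37) reference (100%) wells. Assay: GLP-1R cells at 1.0×E5/mL incubated with compound dilution series (3-fold, 10 points) for 30 min at room temperature before 60 min detection.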

Chain of GLP-1R (P43220 24-463): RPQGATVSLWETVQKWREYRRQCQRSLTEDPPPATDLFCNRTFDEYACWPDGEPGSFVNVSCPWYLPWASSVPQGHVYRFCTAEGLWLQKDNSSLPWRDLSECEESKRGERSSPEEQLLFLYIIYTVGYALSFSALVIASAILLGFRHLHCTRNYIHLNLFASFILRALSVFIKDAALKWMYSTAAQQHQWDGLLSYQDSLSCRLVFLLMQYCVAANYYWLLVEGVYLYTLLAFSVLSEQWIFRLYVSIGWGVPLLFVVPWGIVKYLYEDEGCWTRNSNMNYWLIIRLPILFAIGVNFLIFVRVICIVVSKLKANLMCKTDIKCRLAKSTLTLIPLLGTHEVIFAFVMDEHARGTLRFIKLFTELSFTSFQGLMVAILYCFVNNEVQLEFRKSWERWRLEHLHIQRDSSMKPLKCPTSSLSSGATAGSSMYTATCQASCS

pEC50	Structure (SMILES)
9.04	CC1(c2ccc(C#N)cc2F)Oc2cccc(C3CCN(Cc4nc5cc(NC(=O)c6ccc7[nH]nc(C8CC8)c7c6)ccc5n4CC4CCO4)CC3)c2O1 (stereo not drawn) [Compound 348]
9.41	CC(C)c1n[nH]c2ccc(C(=O)Nc3ccc4c(c3)nc(CN3CC=C(c5cccc6c5OC(C)(c5ccc(C#N)cc5F)O6)CC3)n4CC3CCO3)cc12 (stereo not drawn) [Compound 311]
8.68	O=C(Nc1ccc2c(c1)nc(CN1CC=C(c3cccc(OCc4ccc(Cl)cc4F)n3)CC1)n2C[C@@H]1CCO1)c1ccc2[nH]nc(C(F)(F)F)c2c1 [Compound 215]
8.72	O=C(Nc1ccc2c(c1)nc(C1CC13CCN(c1cccc(OCc4ccc(Cl)cc4F)n1)CC3)n2C[C@@H]1CCO1)c1cc(F)c2c(c1)C1(CC1)C(=O)N2 (stereo partly drawn) [Compound 254]
7.37	O=C(NCC(=O)N1C[C@H](O)C[C@@H]1C(=O)O)c1ccc2c(c1)nc(CN1CCC(c3cccc(OCc4ccc(Cl)cc4F)n3)CC1)n2C[C@@H]1CCO1 [Compound 46]
9.60	O=C(Nc1ccc2c(c1)nc(CN1CC=C(c3cccc(OCc4ccc(Cl)cc4F)n3)CC1)n2C[C@@H]1CCO1)c1cc(F)c2c(c1)C1(CC1)C(=O)N2 [Compound 208]
9.01	Cc1n[nH]c2c(C)cc(NC(=O)c3ccc4c(c3)nc(CN3CCC(c5cccc(OCc6cc(F)c(C#N)s6)n5)CC3)n4C[C@@H]3CCO3)cc12 [Compound 376]
8.53	CC(C)c1n[nH]c2ccc(NC(=O)c3ccc4c(c3)nc(CN3CC=C(c5cccc(OCc6ccc(Cl)cc6F)n5)CC3)n4C[C@@H]3CCO3)cc12 [Compound 140]
9.12	CCc1n[nH]c2ccc(C(=O)Nc3ccc4c(c3)nc(CN3CCC(c5cccc6c5OC(C)(c5ccc(C#N)cc5F)O6)CC3)n4CC3CCO3)cc12 (stereo not drawn) [Compound 346]
9.46	COCCn1c(C2CC23CCN(c2cccc(OCc4ccc(C#N)cc4F)n2)CC3)nc2cc(C(=O)Nc3ccc4[nH]nc(C)c4c3)ccc21 (stereo not drawn) [Compound 7]
9.06	O=C(Nc1ccc2[nH]nc(C(F)F)c2c1)c1ccc2c(c1)nc(CN1CCC(c3cccc(OCc4ccc(Cl)cc4F)n3)CC1)n2C[C@@H]1CCO1 [Compound 115]
7.34	Cc1cc(NC(=O)c2ccc3nc(CN4CC=C(c5cccc(OCc6ccc(Cl)cc6F)n5)CC4)n(CC4CCO4)c3c2)cc2c(F)n[nH]c12 (stereo not drawn) [Compound 265]
9.03	Cc1cc(C(=O)Nc2ccc3c(c2)nc(Cc2c(F)cc(-c4cccc5c4OC(C)(c4ccc(Cl)cc4F)O5)cc2F)n3C[C@@H]2CCO2)cc2[nH]c(=O)[nH]c12 (stereo partly drawn) [Compound 321]
6.35	COCCn1c(CN2CCC(c3cccc(OCc4ccc(Cl)cc4F)n3)CC2)nc2cc(C(=O)N[C@@H]3CCc4nc(N)sc4C3)ccc21 [Compound 14]
7.50	Cc1n[nH]c2ccc(C(=O)Nc3ccc4c(c3)nc(Cc3ccc(-c5cccc6c5OC(C)(c5ccc(Cl)cc5F)O6)s3)n4C[C@@H]3CCO3)cc12 (stereo partly drawn) [Compound 322]
7.10	O=C(NCC(=O)N1CC[C@H](C(=O)O)C1)c1ccc2c(c1)nc(CN1CCC(c3cccc(OCc4ccc(Cl)cc4F)n3)CC1)n2C[C@@H]1CCO1 [Compound 54]
9.09	O=C(Nc1ccc2c(c1)nc(CN1CC=C(c3cccc(OCc4ccc(Cl)cc4F)n3)CC1)n2C[C@@H]1CCO1)c1ccc2[nH]nc(C3CC3)c2c1 [Compound 216]
9.06	CC1(c2ccc(Cl)cc2F)Oc2cccc(C3=CCN(Cc4nc5cc(C(=O)Nc6ccc7[nH]nc(C8CC8)c7c6)ccc5n4CC4CCO4)CC3)c2O1 (stereo not drawn) [Compound 330]
9.01	Cc1n[nH]c2c(Cl)cc(NC(=O)c3ccc4c(c3)nc(CN3CC=C(c5cccc(OCc6ccc(Cl)cc6F)n5)CC3)n4C[C@@H]3CCO3)cc12 [Compound 160]
8.76	C[C@@H](NC(=O)c1ccc2c(c1)nc(CN1CCC(c3cccc(OCc4ccc(Cl)cc4F)n3)CC1)n2C[C@@H]1CCO1)C(=O)N1C[C@@H](O)C[C@@H]1C(=O)O [Compound 65]

pEC50	Structure (SMILES)
8.99	O=C(Nc1ccc2[nH]c(=O)[nH]c2c1)c1ccc2nc(CN3CC=C(c4cccc(OCc5ccc(Cl)cc5F)n4)CC3)n(C[C@@H]3CCO3)c2c1 [Compound 270]
8.79	Cc1cc(C(=O)Nc2ccc3c(c2)nc(CN2CC=C(c4cccc(OCc5ccc(Cl)cc5F)n4)CC2)n3C[C@@H]2CCO2)cc2c(C3CC3)n[nH]c12 [Compound 218]
7.84	COc1n[nH]c2ccc(NC(=O)c3ccc4c(c3)nc(CN3CCC(c5cccc(OCc6ccc(Cl)cc6F)n5)CC3)n4C[C@@H]3CCO3)cc12 [Compound 81]
9.17	Cc1cc(NC(=O)c2ccc3c(c2)nc(CN2CC=C(c4cccc(OCc5ccc(Cl)cc5F)n4)CC2)n3C[C@@H]2CCO2)cc2nn[nH]c12 [Compound 167]
7.13	O=C(Nc1ccn2nccc2c1)c1ccc2c(c1)nc(CN1CCC(c3cccc(OCc4ccc(Cl)cc4F)n3)CC1)n2CC1CCO1 (stereo not drawn) [Compound 96]
6.72	COCCn1c(Cc2ccc(-c3cccc(OCc4ccc(C#N)cc4F)n3)cc2)nc2cc(NC(=O)CCc3ccccc3O)ccc21 [Compound 13]
9.37	Cc1cc(C(=O)Nc2ccc3c(c2)nc(Cc2c(F)cc(-c4cccc5c4OC(C)(c4ccc(Cl)cc4F)O5)cc2F)n3C[C@@H]2CCO2)cc2c1NC(=O)C21CC1 (stereo partly drawn) [Compound 319]
8.70	Cc1nc2cccc(COc3cccc(C4CCN(Cc5nc6cc(C(=O)Nc7ccc8[nH]nc(C)c8c7)ccc6n5C[C@@H]5CCO5)CC4)n3)c2s1 [Compound 381]
8.56	CC(C)c1n[nH]c2ccc(C(=O)Nc3ccc4c(c3)nc(Cc3cc(F)c(-c5cccc6c5OC(C)(c5ccc(C#N)cc5F)O6)cc3F)n4CC3CCO3)cc12 (stereo not drawn) [Compound 323]
8.78	Cc1n[nH]c2c(Cl)cc(NC(=O)c3ccc4c(c3)nc(CN3CC=C(c5cccc6c5O[C@@](C)(c5ccc(Cl)cc5F)O6)C[C@@H]3C)n4CC3CCO3)cc12 (stereo partly drawn) [Compound 329]
8.36	CC1(C)C[C@@H](C(=O)O)N(C(=O)CNC(=O)c2ccc3c(c2)nc(CN2CCC(c4cccc(OCc5ccc(Cl)cc5F)n4)CC2)n3C[C@@H]2CCO2)C1 [Compound 58]
6.84	Fc1cc(Cl)ccc1COc1cccc(C2=CCN(Cc3nc4cc(-n5cnc(-c6ccn[nH]6)c5)ccc4n3C[C@@H]3CCO3)CC2)n1 [Compound 396]
8.48	Cc1n[nH]c2ccc(C(=O)Nc3ccc4c(c3)nc(CN3CC=C(c5cccc(OCc6ccc(Cl)cc6F)n5)CC3)n4C[C@@H]3CCO3)c(F)c12 [Compound 224]
5.49	COCCn1c(CN2CCC(c3cccc(OCc4ccc(Cl)cc4F)n3)CC2)nc2cc(C(=O)NCCCc3ccc(OC)cc3)ccc21 [Compound 20]
8.24	Cc1n[nH]c2ccc(NC(=O)c3ccc4nc(CN5CC=C(c6cccc(OCc7ccc(Cl)cc7F)n6)CC5)n(CC5CCO5)c4c3)cc12 (stereo not drawn) [Compound 263]
< 5.00	COCCn1c(CN2CCC(c3cccc(OCc4ccc(Cl)cc4F)n3)CC2)nc2cc(C(=O)NCCc3ccc(C(F)(F)F)cc3)ccc21 [Compound 23]
6.25	COCCn1c(Cc2ccc(-c3cccc(OCc4ccc(C#N)cc4F)n3)cc2)nc2cc(C(=O)NCC(O)c3ccc(O)cc3)ccc21 (stereo not drawn) [Compound 11]
7.77	O=C(Nc1ccc2ncsc2c1)c1ccc2c(c1)nc(CN1CCC(c3cccc(OCc4ccc(Cl)cc4F)n3)CC1)n2C[C@@H]1CCO1 [Compound 98]
8.61	O=C(CNC(=O)c1ccc2c(c1)nc(CN1CCC(c3cccc(OCc4ccc(Cl)cc4F)n3)CC1)n2C[C@@H]1CCO1)N[C@@H](CO)C(=O)O [Compound 49]
